≈ marks a conversion by molar mass, not a printed value. Where two headings read alike, the source gives them in different places.
Tests used:
[1] = system: HBV; assay: HBV DNA Quantification Assay; type: cell-based; conditions: Hepatitis B virus, 120 h; HepG2 cell line overexpressing NTCP infected with HBV AD38 viral particles; HBV DNA in culture supernatant after 5 days; geometric mean of a minimum of four determinations; read-out: EC50
Experimental: A HepG2 cell line overexpressing the HBV virus attachment receptor sodium-taurocholate cotransporting polypeptide (NTCP) was grown to confluency in DMEM growth medium, Dulbecco's Modified Eagle Medium without sodium pyruvate (Life Technologies, Rockville, Md.) supplemented with 10% FBS (Thermo Scientific, Waltham, Md.), 1% penicillin/streptomycin (Life Technologies, Rockville, Md.) and 2 mM L-glutamine (Life Technologies, Rockville, Md.) in T175 flasks. Cells were infected with HBV AD38 viral particles (Texcell, Frederick, USA) at 4000 genome equivalents per cell. After allowing viral infection to take place for 4 days, the infected cells were harvested from the flasks by trypsinization, washed twice with OptiMEM (Life Technologies, Rockville, Md.) and re-suspended in DMEM containing 2% FBS and 1% DMSO at a density of 0.25E6 cells/ml. Infected cells were seeded on 384 well collagen coated plates (Greiner, Austria) at a density of 20,000 cells/well containing serially diluted compounds of the present disclosure or DMSO (0.5%) in a final volume of 80 μl. The assay plates were incubated for a period of 5 days and the antiviral activity of the test compounds were assayed by detecting the presence of HBV DNA in the culture supernatant using the QuantiGene™ 2.0 nucleic acid quantification kit (Affymetrix, Santa Clara, Calif.).
The culture supernatant was harvested and treated with lysis buffer containing Proteinase K (Affymetrix, Santa Clara, Calif.). The supernatant was incubated with HBV viral DNA specific probes (Affymetrix, Santa Clara, Calif.) for 30 minutes at 55° C. This was followed by addition of 0.2M NaOH for 30 minutes at room temperature to denature the DNA, followed by addition of Neutralization buffer (Affymetrix, Santa Clara, Calif.). The resulting lysed and neutralized supernatant was then added to QuantiGene™ 2.0 384 well plates coated with capture oligonucleotides and incubated overnight at 55° C. The HBV specific probe set consists of Capture Extender oligonucleotides (CE's) and blocking probes. Following the overnight incubation, the wells were incubated for one hour sequentially with a Pre-Amplifier, Amplifier and Labeled probes conjugated to alkaline phosphatase with a wash step between incubations. After the final wash step, the alkaline phosphatase substrate (Luminol APS5) was added and the resulting luminescence signal was read in an EnVision Multilabel Plate Reader (PerkinElmer, Santa Clara, Calif.). The EC50 values were calculated from the fit of the dose-response curves to a four-parameter equation. All EC50 values represent geometric mean values of a minimum of four determinations.

[2] = Kinetic Solubility; type: physicochemical; conditions: kinetic from dmso stock, 0.2 to 100 μM, BD Gentest Solubility Scanner
Experimental: The 10 mM DMSO stock solution of the test compound is serially diluted into a 96-well “DMSO stock dilution plate”. Then Pipette 2 μL from the DMSO stock dilution plate into the “Sample plate” and dilute with 198 µL of the assay media to generate the final concentrations of the test compound ranging from 0.2 to 100 μM. The “Sample plate” is run on a BD Gentest Solubility Scanner.

[3] = aqueous buffer, pH = 7, read-out: Kinetic Solubility at pH = 7
[4] = simulated gastric fluid, pH = 1, read-out: Kinetic Solubility at pH = 1

SMILES	EC50 [1] [nM]	solubility kinetic [2, 3] [µM]	solubility kinetic [2, 4] [µM]
Cc1c(C(=O)Nc2ccc(F)cc2)c2n(c1C(=O)C(=O)NC1(c3cnn[nH]3)CC(F)(F)C1)C[C@H]1C[C@@H]21 [Example 14, (1aS,6bR)-4-(2-((3,3-difluoro-1-(1H-1,2,3-triazol-4-yl)cyclobutyl)amino)-2-oxoacetyl)-N-(4-fluorophenyl)-5-methyl-1,1a,2,6b-tetrahydrocyclopropa[a]pyrrolizine-6-carboxamide]	2.6	61.4 (≈ 30.6 µg/mL)	57.1 (≈ 28.5 µg/mL)
Cc1c(C(=O)Nc2ccc(F)c(C#N)c2)c2n(c1C(=O)C(=O)NC1(c3cnn[nH]3)CC(F)(F)C1)CCC2 [Example 15, N-(3-cyano-4-fluorophenyl)-5-(2-((3,3-difluoro-1-(1H-1,2,3-triazol-4-yl)cyclobutyl)amino)-2-oxoacetyl)-6-methyl-2,3-dihydro-1H-pyrrolizine-7-carboxamide]	5.2	13.9 (≈ 7.11 µg/mL)	13.5 (≈ 6.9 µg/mL)
Cc1c(C(=O)Nc2ccc(F)c(Cl)c2)c2n(c1C(=O)C(=O)NC1(c3cnn[nH]3)CC(F)(F)C1)CCC2 [Example 16, N-(3-chloro-4-fluorophenyl)-5-(2-((3,3-difluoro-1-(1H-1,2,3-triazol-4-yl)cyclobutyl)amino)-2-oxoacetyl)-6-methyl-2,3-dihydro-1H-pyrrolizine-7-carboxamide]	1.8	2.8 (≈ 1.46 µg/mL)	16.5 (≈ 8.59 µg/mL)
Cc1c(C(=O)Nc2ccc(F)cc2)c2n(c1C(=O)C(=O)NC1(c3cnn[nH]3)CC(F)(F)C1)CCC2 [Example 17, 5-(2-((3,3-difluoro-1-(1H-1,2,3-triazol-4-yl)cyclobutyl)amino)-2-oxoacetyl)-N-(4-fluorophenyl)-6-methyl-2,3-dihydro-H-pyrrolizine-7-carboxamide]	4.1	77.8 (≈ 37.8 µg/mL)	70.2 (≈ 34.1 µg/mL)
Cc1c(C(=O)Nc2cc(F)c(F)c(F)c2)c2n(c1C(=O)C(=O)NC1(c3cnn[nH]3)CC(F)(F)C1)CCC2 [Example 18]	2.4	52.7 (≈ 27.5 µg/mL)	50 (≈ 26.1 µg/mL)
Cc1c(C(=O)Nc2ccc(F)c(F)c2)c2n(c1C(=O)C(=O)NC1(CO)CC(F)(F)C1)CCC2 [Example 19, 5-(2-((3,3-difluoro-1-(hydroxymethyl)cyclobutyl)amino)-2-oxoacetyl)-N-(3,4-difluorophenyl)-6-methyl-2,3-dihydro-1H-pyrrolizine-7-carboxamide]	20.2	62 (≈ 29 µg/mL)	68.7 (≈ 32.1 µg/mL)
CNC(=O)C1(NC(=O)C(=O)c2c(C)c(C(=O)Nc3ccnc(C(F)F)c3F)c3n2CCC3)CC(F)(F)C1 [Example 20, 5-(2-((3,3-difluoro-1-(methylcarbamoyl)cyclobutyl)amino)-2-oxoacetyl)-N-(2-(difluoromethyl)-3-fluoropyridin-4-yl)-6-methyl-2,3-dihydro-1H-pyrrolizine-7-carboxamide]	503	28 (≈ 14.8 µg/mL)	26.3 (≈ 13.9 µg/mL)
Cc1c(C(=O)Nc2ccc(F)c(F)c2)c2n(c1C(=O)C(=O)NC1(c3cnn[nH]3)CC(F)(F)C1)C[C@@H]1C[C@H]21 [Example 21]	3.9	57.6 (≈ 29.7 µg/mL)	64.7 (≈ 33.4 µg/mL)
CNC(=O)C1(NC(=O)C(=O)c2c(C)c(C(=O)Nc3ccc(F)c(F)c3)c3n2C[C@@H]2C[C@H]32)CC(F)(F)C1 [Example 22, (1aR,6bS)-4-(2-((3,3-difluoro-1-(methylcarbamoyl)cyclobutyl)amino)-2-oxoacetyl)-N-(3,4-difluorophenyl)-5-methyl-1,1a,2,6b-tetrahydrocyclopropa[a]pyrrolizine-6-carboxamide]	31.5	> 100	> 100
